Results on 20 compounds are retold here after patent EP0637237B1, “CALCIUM RECEPTOR-ACTIVE MOLECULES” (BRIGHAM AND WOMEN'S HOSPITAL, INC., priority 1993, dated 1994).

Read-outs that look alike come from different tables or passages of the source.

Data set [1] has as its target T1, parathyroid cell Ca^2+ receptor (Bos taurus, UniProt P35384).
T1 sequence (P35384 20-1085): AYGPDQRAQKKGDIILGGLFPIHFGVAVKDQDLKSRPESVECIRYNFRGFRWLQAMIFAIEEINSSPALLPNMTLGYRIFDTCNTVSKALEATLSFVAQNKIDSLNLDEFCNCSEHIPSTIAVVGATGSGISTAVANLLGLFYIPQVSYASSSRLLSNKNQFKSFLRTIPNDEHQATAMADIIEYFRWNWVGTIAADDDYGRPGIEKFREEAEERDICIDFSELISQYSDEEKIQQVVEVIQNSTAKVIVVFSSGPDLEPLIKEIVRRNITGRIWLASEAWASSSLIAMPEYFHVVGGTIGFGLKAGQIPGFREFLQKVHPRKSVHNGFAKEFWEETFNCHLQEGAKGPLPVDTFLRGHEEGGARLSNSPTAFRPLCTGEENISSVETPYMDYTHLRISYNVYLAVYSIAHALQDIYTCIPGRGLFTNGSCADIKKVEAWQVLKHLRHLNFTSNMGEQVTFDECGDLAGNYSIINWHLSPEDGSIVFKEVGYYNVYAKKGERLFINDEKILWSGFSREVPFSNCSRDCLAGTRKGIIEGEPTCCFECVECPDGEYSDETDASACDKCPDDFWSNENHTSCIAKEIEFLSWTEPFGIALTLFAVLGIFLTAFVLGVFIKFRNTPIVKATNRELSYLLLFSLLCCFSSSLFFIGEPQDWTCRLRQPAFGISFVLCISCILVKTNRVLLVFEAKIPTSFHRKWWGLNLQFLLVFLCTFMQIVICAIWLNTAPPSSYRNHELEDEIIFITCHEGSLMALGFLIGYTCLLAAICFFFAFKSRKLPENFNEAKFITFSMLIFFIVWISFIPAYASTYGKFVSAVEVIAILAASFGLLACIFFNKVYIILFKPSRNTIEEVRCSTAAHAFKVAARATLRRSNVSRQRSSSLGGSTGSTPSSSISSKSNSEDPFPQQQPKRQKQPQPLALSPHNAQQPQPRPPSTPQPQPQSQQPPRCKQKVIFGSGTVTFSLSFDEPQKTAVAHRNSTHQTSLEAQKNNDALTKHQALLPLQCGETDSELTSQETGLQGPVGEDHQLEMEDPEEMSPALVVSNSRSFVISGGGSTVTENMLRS
The class given is cell-based, bovine. The conditions noted are these: for effect on [Ca2+]i: tested at concentrations of 100 to 300 µM.

Data set [2] is described as follows: Serum or whole blood ionized Ca2+ and PTH in rats in vivo. On the set-up: species or system Sprague-Dawley rats. An excerpt: Male Sprague-Dawley rates (200 g) were maintained on a low calcium diet for one week prior to receiving test substance or vehicle as control. Blood was collected from the tail vein three hours after the intra-peritoneal administration of NPS 467. […]

Data set [3] in a line: Net positive charge of the molecule. It is filed as physicochemical. Particulars: Table 1; effective charge at physiological pH.
Data set [4] deals with osteoclast Ca^2+ receptor. Nature of the data set: [Ca2+]i (indo-1) in single rat osteoclasts. Particulars: for increase in [Ca2+]i in osteoclasts: screening, small responses were detected. It is filed as cell-based.
The target in data set [5] is T2, parathyroid cell Ca^2+ receptor (Homo sapiens, UniProt P41180).
T2 construct: Dissociated parathyroid cells were prepared from a parathyroid adenoma obtained by surgery from a patient with primary hyperparathyroidism; endogenous in cells; host or cells: primary human parathyroid cells from adenomatous or hyperplastic glands
T2 sequence (P41180 20-1078): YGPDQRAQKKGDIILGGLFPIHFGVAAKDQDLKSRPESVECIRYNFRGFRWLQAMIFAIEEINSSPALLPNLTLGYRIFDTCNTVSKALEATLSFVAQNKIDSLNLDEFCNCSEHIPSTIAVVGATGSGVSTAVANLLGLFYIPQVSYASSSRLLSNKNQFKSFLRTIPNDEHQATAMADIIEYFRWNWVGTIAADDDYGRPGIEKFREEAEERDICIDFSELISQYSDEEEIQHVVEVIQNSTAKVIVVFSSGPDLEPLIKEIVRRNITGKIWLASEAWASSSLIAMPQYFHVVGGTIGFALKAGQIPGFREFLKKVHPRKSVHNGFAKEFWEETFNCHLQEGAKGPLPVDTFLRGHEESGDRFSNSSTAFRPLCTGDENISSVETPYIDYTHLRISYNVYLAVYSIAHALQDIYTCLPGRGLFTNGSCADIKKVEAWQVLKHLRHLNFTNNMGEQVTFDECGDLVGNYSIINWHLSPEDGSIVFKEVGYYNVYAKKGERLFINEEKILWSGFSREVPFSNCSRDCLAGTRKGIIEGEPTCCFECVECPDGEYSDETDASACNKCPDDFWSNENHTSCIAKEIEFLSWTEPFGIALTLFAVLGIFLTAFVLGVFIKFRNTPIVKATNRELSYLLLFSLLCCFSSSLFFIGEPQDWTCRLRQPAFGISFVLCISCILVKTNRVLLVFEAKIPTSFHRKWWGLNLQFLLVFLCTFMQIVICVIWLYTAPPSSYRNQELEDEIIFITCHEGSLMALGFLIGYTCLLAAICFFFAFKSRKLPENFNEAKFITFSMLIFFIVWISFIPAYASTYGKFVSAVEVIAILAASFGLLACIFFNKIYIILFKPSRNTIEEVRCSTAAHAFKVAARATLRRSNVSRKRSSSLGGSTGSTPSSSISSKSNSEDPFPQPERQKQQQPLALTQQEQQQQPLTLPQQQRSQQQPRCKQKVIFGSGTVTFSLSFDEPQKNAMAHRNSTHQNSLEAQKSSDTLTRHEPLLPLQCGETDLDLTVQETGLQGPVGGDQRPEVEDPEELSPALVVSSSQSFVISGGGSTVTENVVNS
Kind of data set: [Ca2+]i (fura-2) in human parathyroid cells. Particulars: human parathyroid cells (adenoma). The class given is cell-based.
Protocol: Human parathyroid glands, obtained from patients undergoing surgical removal of parathyroid tissue for primary or uremic hyperparathyroidism (HPT), were treated similarly to bovine tissue. Glands were trimmed of excess fat and connective tissue and then minced with a fine scissors into approximate cubes of 2-3 mm. Dissociated parathyroid cells were prepared by collagenase digestion. Dissociated cells were then purified by centrifugation in Percoll buffer. The resultant parathyroid cell preparation was essentially devoid of red blood cells, adipocytes, and capillary tissue as assessed by phase contrast microscopy and Sudan black B staining. Dissociated and purified parathyroid cells were present as small clusters containing 5 to 20 cells.
The cells were then pelleted, resuspended in the same buffer lacking the ester, and incubated a further 15 min at 37°C. The cells were subsequently washed twice with PCB containing 0.5 mM CaCl2 and 0.5% BSA and maintained at room temperature (about 20°C). Immediately before use, the cells were diluted five-fold with prewarmed 0.5 mM CaCl2-PCB to obtain a final BSA concentration of 0.1%. The concentration of cells in the cuvette used for fluorescence recording was 1-2 x 10^6/ml.
The fluorescence of indicator-loaded cells was measured at 37°C in a spectrofluorimeter (Biomedical Instrumentation Group, University of Pennsylvania, Philadelphia, PA) equipped with a thermostated cuvette holder-and magnetic stirrer using excitation and emission wavelengths of 340 and 510 nm, respectively. […] Leakage of dye is dependent on temperature and most occurs within the first 2 min after warming the cells in the cuvette; dye leakage increases only very slowly thereafter. To correct the calibration for dye leakage, cells were placed in the cuvette and stirred at 37°C for 2-3 min. The cell suspension was then removed, the cells pelleted, and the supernatant returned to a clean cuvette. […] This estimate was subtracted from the apparent Fmin.

In another data set the target is T3, Ca^2+ receptor (Homo sapiens, UniProt P41180).
T3 construct: Oocytes were injected with poly(A)^+-enriched mRNA from human parathyroid tissue (hyperplastic glands from a case of secondary HPT); expressed in transfected cells; host or cells: Xenopus laevis oocytes injected with poly(A)+ mRNA from hyperplastic human parathyroid glands
T3 sequence (P41180 20-1078): T2 sequence (P41180 20-1078)
Kind of data set: Cl- current in Xenopus oocytes injected with human parathyroid poly(A)+ mRNA. Particulars: hexacyclen 135 µM, neomycin 100 µM, NPS 382 5 mM. The class given is cell-based.

[6] abbreviates: read-out: EC50 for the mobilization of intracellular Ca2+, […].
The mark [7] stands for this setting: Table 6, rat osteoclasts, indo-1, inactive = no increase in cytosolic Ca2+ at 1-5 mM.
Setting [8] is: Table 1, mobilization of intracellular Ca2+ in parathyroid cells, read-out: EC50.

`COc1cccc(C(C)NCCCc2ccccc2)c1` (racemic) [NPS 467]: in data set [1] (setting [6]), the EC50 is less than 5 µM. Further, in data set [2] (Fig. 40 (25 mg/kg)), the “time course of the hypocalcemic effect” value is “maximal within three hours and returned toward control levels after 24 hours”. The “serum albumin or phosphate levels” value in data set [2] (any of the doses examined) is on record as “no change in serum albumin or phosphate levels”. For the same compound, the “serum or whole blood Ca2+” value in data set [2] (low calcium diet, three hours after intra-peritoneal administration, Fig. 38) is listed as “dose-dependent reduction in serum or whole blood Ca^2+”. In addition, in data set [2] (oral, dose-response curve, Fig. 44), the “serum ionized calcium after oral administration” value is “lowers serum ionized calcium in rats when administered orally”. For the same compound, the “circulating levels of PTH” value in data set [2] (preliminary studies, doses effective in lowering blood Ca2+, Fig. 39) is “dose-dependent reduction in circulating levels of PTH”.

With `COc1cccc(C(C)NCCCc2ccccc2Cl)c1` (racemic) [NPS 568], the 50% effective concentration (EC50) in data set [1] (setting [6]) was less than 5 µM.

On to `NCCCCCCCCCCCCN` [1,12-diaminododecane (DADD), 1,12-diaminododecane], for which, in data set [1] (read-out: EC50), the half-maximal effective concentration (EC50) stood at 3000 µM. Further, the “Net (+) Charge” value in data set [3] was “+2”.

For `NC(=O)C[C@H](NC(=O)Cc1c[nH]c2cccc(O)c12)C(=O)NCCCCCNCCCNCCCNC(=O)[C@@H](N)CCCN=C(N)N` [Argiotoxin 659], the “effect on [Ca2+]i” value in data set [1] was “evoked transient increases in [Ca^2+]i”. Further, the “Net (+) Charge” value in data set [3] was “+4”.

Take `NCCCNCCCCNCCCNCCCN(O)CCCNC(=O)Cc1c[nH]c2ccccc12` [NPS 017]: the “EC50(µM) OSTEOCLAST” value in data set [4] (setting [7]) is “inactive”.

For `NCCCNCCCCNCCCNCCCNCCCNC(=O)Cc1c[nH]c2ccccc12` [NPS 019], the EC50 in data set [4] (setting [7]) was more than 300 µM.

Take `NCCCN(CCCN)CCCN(CCCN)CCCCN(CCCN)CCCN(CCCN)CCCN` [NPS 381, N^1,N^1,N^5,N^10,N^14,N^14-hexakis-(3-aminopropyl) spermine]: in data set [3], the “Net (+) Charge” value is listed as “+10”.

Regarding `NCCCN1CCCN(CCCN)CCN(CCCN)CCCN(CCCN)CC1` [NPS 383], the “Net (+) Charge” value in data set [3] is reported as “+8”.

Regarding `COc1cccc([C@@H](C)NCCCc2ccccc2Cl)c1` [NPS R-568], the concentration giving a half-maximal response (EC50) in data set [5] came out at 3 µM; in data set [1] (Table 6, […], fura-2, inactive = no increase in cytosolic Ca2+ at 1-5 mM, read-out: EC50(µM) PARATHYROID) it was 0.6 µM.

Regarding `NC(=O)C[C@H](NC(=O)Cc1ccc(O)cc1O)C(=O)NCCCCCNCCCNCCCNC(=O)[C@@H](N)CCCN=C(N)N` [argiotoxin 636], in data set [1], the “effect on [Ca2+]i” value is reported as “without effect”.

With `NC[C@H]1O[C@H](O[C@H]2[C@H](O)[C@@H](O[C@H]3O[C@H](CO)[C@@H](O)[C@H](N)[C@H]3O)[C@H](N)C[C@@H]2N)[C@H](N)[C@@H](O)[C@@H]1O` [bekanamycin], the half-maximal effective concentration (EC50) in data set [1] (setting [8]) and in data set [1] ([…]) was 200 µM each time. In addition, the “Net (+) Charge” value in data set [3] is listed as “+5”.

For the compound `C1CNCCNCCNCCNCCNCCN1` [hexacyclen, 1,4,7,10,13,16-hexaaza-cyclooctadecane], in data set [1], the “fold increase in potency over pentaethylenehexamine (straight chain analog)” value came to 25 fold. For the same compound, the EC50 in data set [1] (setting [8]) and in data set [1] ([…]) was 20 µM in each case. In addition, the “mobilization of intracellular Ca2+ in oocytes expressing the Ca2+ receptor” value on Ca^2+ receptor is on record as “caused the mobilization of intracellular Ca^2+”. For the same compound, in data set [3], the “Net (+) Charge” value was “+6”.

Take `CCC[C@@H]1C[C@@H](C(=O)N[C@@H]([C@H]2O[C@H](SC)[C@H](O)[C@@H](O)[C@H]2O)[C@@H](C)O)N(C)C1` [lincomycin]: the “effect on cytosolic Ca2+ transients” value in data set [1] (tested at a concentration of 500 µM) is recorded as “without effect”.

In turn, `NCCCCNCCCN` [spermidine] had a half-maximal effective concentration (EC50) in data set [1] of 2000 µM. The “Net (+) Charge” value in data set [3] was “+3”. Also, the “increase in [Ca2+]i, % of that evoked by a maximal concentration of extracellular Ca2+” value in data set [4] (concentration of 1 mM) is “about 10%”. The “increase in [Ca2+]i in osteoclasts” value in data set [4] was “none of these caused any large increase in [Ca^2+]i”.

Take `[H]/N=C(/N)N[C@H]1[C@H](O)[C@@H](O)[C@H](O[C@@H]2O[C@@H](C)[C@](O)(C=O)[C@H]2O[C@@H]2O[C@@H](CO)[C@H](O)[C@@H](O)[C@@H]2NC)[C@@H](N/C(N)=N\[H])[C@@H]1O` [streptomycin]: the EC50 in data set [1] (setting [8]) and in data set [1] ([…]) was 600 µM each time. In addition, in data set [3], the “Net (+) Charge” value was “+3”.

Take `NCCNCCNCCNCCN` [tetraethylenepentamine]: the “Net (+) Charge” value in data set [3] is “+5”.

On to `NCCNCCNCCN` [triethylenetetramine], for which the “Net (+) Charge” value in data set [3] is “+4”.

For the compound `COc1ccc(CCN(C)CCCC(C#N)(c2ccc(OC)c(OC)c2)C(C)C)cc1OC` (centres unmarked) [verapamil], in data set [4], the “increase in [Ca2+]i in osteoclasts” value was “none of these caused any large increase in [Ca^2+]i”. For the same compound, in data set [4] (verapamil 100 µM), the “increase in [Ca2+]i” value is “no detectable increase in [Ca^2+]i”.

As for “N^1,N^1,N^5,N^14,N^14-tetrakis-(3-aminopropyl)spermine [NPS 382]”, the “mobilization of intracellular Ca2+ in oocytes expressing the Ca2+ receptor” value on Ca^2+ receptor is “effective”. Besides, in data set [3], the “Net (+) Charge” value is reported as “+8”.

gentamicin: in data set [3], the “Net (+) Charge” value is “+5”.

By EC50 is commonly meant the midpoint of the concentration-response curve.
